# According to article PMC10897929 (2024):
# Experiments:
# [1] = tested on: CSS.3_cut3 (DNA, aptamer) GGACGACGCCAGAAGTTTACGAGGATATGGTAACATAGTCGT; assay: BLI, steady state fit; conditions: Na+ 123 mM (NaCl), K+ 3.5 mM, Ca2+ 2.5 mM, Mg2+ 0.7 mM; sISF, 10 mM HEPES, 30 °C
# [2] = tested on: CSS.3_cut5 (DNA, aptamer) GGACGACGCCAGAAGTTTACGAGGATATGGTAACATAGTC; assay: BLI, steady state fit; conditions: Na+ 123 mM (NaCl), K+ 3.5 mM, Ca2+ 2.5 mM, Mg2+ 0.7 mM; sISF, 10 mM HEPES, 30 °C
smiles,measurement,setting,value
C[C@]12CCC(=O)C=C1CC[C@@H]1[C@@H]2[C@@H](O)C[C@@]2(C)[C@H]1CC[C@]2(O)C(=O)CO,KD,[1],990 nM
same,KD,[2],4200 nM
